The source made the active and inactive calls. Rule as the data show it: actives have a measured IC50 and inactives only a lower limit.
Experiments:
[1] = target: T1, Apoptotic protease-activating factor 1 (Homo sapiens, UniProt O14727); format: functional
T1 sequence (O14727 whole entry): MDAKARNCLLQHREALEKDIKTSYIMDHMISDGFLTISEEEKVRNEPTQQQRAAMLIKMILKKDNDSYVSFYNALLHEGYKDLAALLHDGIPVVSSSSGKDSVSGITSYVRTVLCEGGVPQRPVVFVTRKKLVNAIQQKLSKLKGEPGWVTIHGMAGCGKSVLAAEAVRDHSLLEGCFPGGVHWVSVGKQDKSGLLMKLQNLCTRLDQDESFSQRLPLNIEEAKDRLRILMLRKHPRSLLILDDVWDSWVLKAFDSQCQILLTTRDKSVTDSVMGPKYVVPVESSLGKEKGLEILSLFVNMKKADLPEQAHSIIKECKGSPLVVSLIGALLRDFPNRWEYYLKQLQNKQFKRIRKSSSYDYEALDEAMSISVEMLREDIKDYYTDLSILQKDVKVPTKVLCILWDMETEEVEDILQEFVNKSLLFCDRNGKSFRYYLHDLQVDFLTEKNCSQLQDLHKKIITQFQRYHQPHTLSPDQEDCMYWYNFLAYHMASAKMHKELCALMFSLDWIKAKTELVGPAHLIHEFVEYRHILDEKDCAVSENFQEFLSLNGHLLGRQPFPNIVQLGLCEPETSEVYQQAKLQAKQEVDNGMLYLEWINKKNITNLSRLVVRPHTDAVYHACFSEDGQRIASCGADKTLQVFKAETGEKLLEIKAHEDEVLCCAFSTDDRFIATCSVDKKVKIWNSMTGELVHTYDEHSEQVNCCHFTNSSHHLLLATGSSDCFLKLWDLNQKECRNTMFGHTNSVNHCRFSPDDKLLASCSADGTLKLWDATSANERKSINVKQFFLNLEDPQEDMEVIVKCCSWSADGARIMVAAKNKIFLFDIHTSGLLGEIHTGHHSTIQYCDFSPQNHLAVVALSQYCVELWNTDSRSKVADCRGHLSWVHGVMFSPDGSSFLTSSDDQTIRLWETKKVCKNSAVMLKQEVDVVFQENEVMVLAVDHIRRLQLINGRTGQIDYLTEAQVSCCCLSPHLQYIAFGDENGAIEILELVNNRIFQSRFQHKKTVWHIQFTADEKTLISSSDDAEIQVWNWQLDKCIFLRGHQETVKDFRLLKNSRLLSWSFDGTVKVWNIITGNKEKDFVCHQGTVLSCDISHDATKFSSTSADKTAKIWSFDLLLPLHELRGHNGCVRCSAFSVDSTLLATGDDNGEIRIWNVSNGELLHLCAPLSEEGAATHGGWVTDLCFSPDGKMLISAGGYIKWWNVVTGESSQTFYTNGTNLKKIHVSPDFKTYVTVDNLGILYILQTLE

[2] = target: T2, Sentrin-specific protease 7 (Homo sapiens, UniProt Q9BQF6); format: functional;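 also: Luminescence-based dose-response confirmation of ultra-high-throughput screening hits, measuring inhibition of SENP7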
T2 sequence (Q9BQF6 whole entry): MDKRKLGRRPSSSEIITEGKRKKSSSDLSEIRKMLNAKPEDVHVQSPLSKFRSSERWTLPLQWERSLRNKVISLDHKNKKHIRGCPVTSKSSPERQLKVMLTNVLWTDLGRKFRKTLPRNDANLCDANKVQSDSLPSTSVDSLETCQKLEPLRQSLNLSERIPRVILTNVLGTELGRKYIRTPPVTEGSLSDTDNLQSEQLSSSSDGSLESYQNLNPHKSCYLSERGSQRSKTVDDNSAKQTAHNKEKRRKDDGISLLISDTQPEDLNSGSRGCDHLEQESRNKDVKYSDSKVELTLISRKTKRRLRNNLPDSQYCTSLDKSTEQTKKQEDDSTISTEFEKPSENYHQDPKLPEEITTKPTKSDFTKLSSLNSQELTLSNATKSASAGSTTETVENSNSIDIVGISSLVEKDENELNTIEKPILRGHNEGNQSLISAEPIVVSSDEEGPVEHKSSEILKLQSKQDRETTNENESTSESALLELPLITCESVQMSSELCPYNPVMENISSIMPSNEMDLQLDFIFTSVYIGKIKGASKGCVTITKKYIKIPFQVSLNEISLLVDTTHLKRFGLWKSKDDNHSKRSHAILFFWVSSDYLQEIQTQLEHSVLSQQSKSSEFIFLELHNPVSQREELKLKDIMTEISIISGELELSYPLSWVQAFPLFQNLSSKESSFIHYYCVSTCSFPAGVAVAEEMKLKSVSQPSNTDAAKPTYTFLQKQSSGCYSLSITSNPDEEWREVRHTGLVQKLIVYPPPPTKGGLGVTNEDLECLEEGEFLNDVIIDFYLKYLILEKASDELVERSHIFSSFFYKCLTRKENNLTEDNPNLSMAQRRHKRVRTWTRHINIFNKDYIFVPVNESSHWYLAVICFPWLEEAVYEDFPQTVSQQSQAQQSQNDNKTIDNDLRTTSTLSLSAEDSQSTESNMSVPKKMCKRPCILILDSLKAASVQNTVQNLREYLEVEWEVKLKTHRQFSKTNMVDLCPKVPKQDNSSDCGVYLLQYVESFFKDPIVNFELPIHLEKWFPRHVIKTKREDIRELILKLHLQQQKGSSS

Row | Structure (SMILES) | IC50 [1] | IC50 [2]
1 | NS(=O)(=O)c1ccc(NC2=CC(=O)C(=O)c3ccccc32)cc1 | 2.08 µM (active) | 7.93 µM (active)
2 | CC(C)n1cnc2c(NCc3ccccc3)cc(OCC3CCN(C)CC3)cc21 | 6.63 µM (active) | 5.65 µM (active)
3 | CC(C)N(C(=O)Nc1ccc2nsnc2c1)C(C)C | 6.61 µM (active) | 3.49 µM (active)

— ChEMBL document CHEMBL1201862, “PubChem BioAssay data set” (2004)
